Values quoted from earlier work as cited in US9198881B2, “Equine nutritional supplement” (priority 2011, dated 2015).
Where two headings read alike, the source gives them in different places.

System: nitric oxide
Settings: humans, 8 weeks of supervised aerobic training, FIGS. 4 and 5

Substance: Glycine Propionyl L-Carnitine Hydrochloride
- nitric oxide levels (1.5 grams per day): statistically significant enhancement
- nitric oxide levels (4.5 grams per day): statistically significant enhancement
